Laboratory results from US9737520B2, “Aclidinium for use in improving the quality of sleep in respiratory patients” (Almirall, S.A., priority 2011, dated 2017).

Experiments:
[1] = tested on: patients with moderate-to-severe COPD; assay: Phase IIa randomised, double-blind, double-dummy, crossover trial; sleep difficulties score on patient diary card (Example 3); format: in vivo, human; conditions: 15 days; for average score (+/-SEM), change in sleep difficulties score with respect to baseline: aclidinium 400 μg BID, tiotropium 18 μg QD, score 0-4
Procedure: In a Phase IIa randomised, double-blind, double-dummy, crossover trial, patients with moderate-to-severe COPD received inhaled aclidinium 400 μg BID, tiotropium 18 μg QD and placebo for 15 days, with a 9-15 day washout between treatment periods.
The incidence of sleep difficulties was recorded daily on a patient diary card. As in Example 1, the scores ranged from 0 for none to 1-4 for increasing severity of the sleep difficulties. The change in the score produced by each treatment with respect to the baseline was then measured.

[2] = to two inactive metabolites; cited from earlier work
respiratory patients = conditions: administration in the evening versus only in the morning; cited from earlier work

SMILES | average score (+/-SEM), change in sleep difficulties score with respect to baseline [1] | hydrolysis in human plasma [2] | bronchodilation during the night (respiratory patients) | statistical difference of the sleep difficulties score with placebo ([1]; aclidinium 400 μg BID (p<0.05), tiotropium 18 μg QD (p>0.05))
O=C(O[C@H]1C[N+]2(CCCOc3ccccc3)CCC1CC2)C(O)(c1cccs1)c1cccs1 [aclidinium, 3(R)-(2-hydroxy-2,2-dithien-2-ylacetoxy)-1-(3-phenoxypropyl)-1-azoniabicyclo[2.2.2]octane] | −0.123 (0.089) | rapidly hydrolysed | – | –
C[N+]1(C)[C@@H]2C[C@@H](OC(=O)C(O)(c3cccs3)c3cccs3)C[C@H]1[C@@H]1O[C@@H]12 [tiotropium] | −0.011 (0.091) | – | does not produce more bronchodilation during the night | no statistically significant difference
